In patent US9670227B2, “Thienopyrimidine derivatives, a process for their preparation and pharmaceutical compositions containing them” (LES LABORATOIRES SERVIER, priority 2013, dated 2017):
Where two headings read alike, the source gives them in different places.

Biological target: Mcl-1 protein (UniProtKB primary accession number: Q07820) (Homo sapiens, UniProt Q07820)
Assay: Inhibition of Mcl-1 by fluorescence polarisation, Method 1
Type: binding
Conditions: for percentage fluorescence polarisation inhibition, Mcl-1 FP: partial inhibitors; for percentage fluorescence polarisation inhibition, Mcl-1 FP / percentage fluorescence polarisation inhibition (Mcl-1 FP), partial inhibitors: @ 10 uM test compound; for IC50: read-out: IC50 (M) Mcl-1 FP
Method in brief: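 Fluorescence polarisation competition with an 11-point compound dilution series (final DMSO 5%). Mcl-1 protein at 5 nM and fluorescein-labelled ligand at 1 nM (final) in 10 mM HEPES, 150 mM NaCl, 0.05% Tween 20, pH 7.4.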

[1] = fluorescence polarisation test, Method 2 values are underlined in the patent (underlining not visible here)
[2] = fluorescence polarisation, Method 1, or Method 2

Mcl-1 protein, sequence (Q07820 whole entry): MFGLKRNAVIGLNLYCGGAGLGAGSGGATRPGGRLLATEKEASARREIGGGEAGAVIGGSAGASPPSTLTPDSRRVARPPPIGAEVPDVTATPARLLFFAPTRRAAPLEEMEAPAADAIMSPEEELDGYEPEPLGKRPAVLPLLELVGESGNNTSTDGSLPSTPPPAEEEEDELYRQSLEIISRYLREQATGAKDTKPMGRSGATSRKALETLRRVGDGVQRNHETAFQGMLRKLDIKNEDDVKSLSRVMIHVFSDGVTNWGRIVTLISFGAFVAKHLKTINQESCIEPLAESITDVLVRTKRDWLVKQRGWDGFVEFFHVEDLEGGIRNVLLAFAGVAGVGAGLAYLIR

| Compound | IC50 [2] [M] | other results |
| --- | --- | --- |
| CCOC(=O)C(Cc1ccccc1OCC1CCCO1)Oc1ncnc2sc(-c3ccc(F)cc3)c(-c3ccc(OCCN(C)C)c(Cl)c3C)c12 [Example 630, ethyl (2R)-2-{[(5Sa)-5-{3-chloro-4-[2-(dimethylamino)ethoxy]-2-methylphenyl}-6-(4-fluorophenyl)thieno[2,3-d]pyrimidin-4-yl]oxy}-3-{2-[(2R)-tetrahydrofuran-2-ylmethoxy]phenyl}propanoate] | – | percentage fluorescence polarisation inhibition, Mcl-1 FP: 27.95% @ 10 uM |
| CCn1nccc1COc1ccccc1CC(Oc1ncnc2sc(-c3ccc(F)cc3)c(-c3ccc(OCCN4CCN(C)CC4)c(Cl)c3C)c12)C(=O)O [Example 76, (2R)-2-{[(5Sa)-5-{3-chloro-2-methyl-4-[2-(4-methylpiperazin-1-yl)ethoxy]phenyl}-6-(4-fluorophenyl)thieno[2,3-d]pyrimidin-4-yl]oxy}-3-{2-[(1-ethyl-1H-pyrazol-5-yl)methoxy]phenyl}propanoic acid] | – | IC50 [1]: 1.6e-08 M |
| Cc1c(-c2c(-c3ccc(F)o3)sc3ncnc(OC(Cc4ccccc4OCc4ccnn4C(C)C)C(=O)O)c23)ccc(OCCN2CCN(C)CC2)c1Cl [Example 182, (2R)-2-{[(5Sa)-5-{3-chloro-2-methyl-4-[2-(4-methylpiperazin-1-yl)ethoxy]phenyl}-6-(5-fluorofuran-2-yl)thieno[2,3-d]pyrimidin-4-yl]oxy}-3-(2-{[1-(propan-2-yl)-1H-pyrazol-5-yl]methoxy}phenyl)propanoic acid] | – | IC50 [1]: 4.4e-09 M |
| CCc1sc2ncnc(OC(Cc3ccccc3)C(=O)O)c2c1-c1cc2c(c(Cl)c1C)OCC(=O)N2 [Example 441, (2R)-2-{[(5Sa)-5-(8-chloro-7-methyl-3-oxo-3,4-dihydro-2H-1,4-benzoxazin-6-yl)-6-ethylthieno[2,3-d]pyrimidin-4-yl]oxy}-3-phenylpropanoic acid] | 2.7e-08 | – |
| COc1ccc(-c2c(-c3ccc(F)cc3)sc3ncnc(OC(Cc4ccccc4OCc4ccnn4CCN(C)C)C(=O)O)c23)c(C)c1Cl [Example 663, (2R)-2-{[(5Sa)-5-(3-chloro-4-methoxy-2-methylphenyl)-6-(4-fluorophenyl)thieno[2,3-d]pyrimidin-4-yl]oxy}-3-[2-({1-[2-(dimethylamino)ethyl]-1H-pyrazol-5-yl}methoxy)phenyl]propanoic acid] | 2.5e-08 | – |
| CCCCn1nccc1COc1ccccc1CC(Oc1ncnc2sc(C#N)c(-c3ccc(OCCN4CCN(C)CC4)c(Cl)c3C)c12)C(=O)O [Example 614, (2R)-3-{2-[(1-butyl-1H-pyrazol-5-yl)methoxy]phenyl}-2-[((5Sa)-5-{3-chloro-2-methyl-4-[2-(4-methylpiperazin-1-yl)ethoxy]phenyl}-6-cyanothieno[2,3-d]pyrimidin-4-yl)oxy]propanoic acid] | 8.4e-09 | – |
| Cc1c(-c2c(-c3cc4ccccc4o3)sc3ncnc(OC(Cc4ccccc4)C(=O)O)c23)ccc(OCCN2CCN(C)CC2)c1Cl [Example 496, (2R)-2-{[6-(1-benzofuran-2-yl)-(5Sa)-5-{3-chloro-2-methyl-4-[2-(4-methylpiperazin-1-yl)ethoxy]phenyl}thieno[2,3-d]pyrimidin-4-yl]oxy}-3-phenylpropanoic acid] | 2e-07 | – |
| CCOC(=O)[C@@H](Cc1ccccc1OCc1ccnc(OC)n1)Oc1ncnc2sc(-c3ccc(F)cc3)c(-c3ccc(OCCN4CCN(C)CC4)c(Cl)c3C)c12 [Example 626, ethyl (2R)-2-{[(5Sa)-5-{3-chloro-2-methyl-4-[2-(4-methylpiperazin-1-yl)ethoxy]phenyl}-6-(4-fluorophenyl)thieno[2,3-d]pyrimidin-4-yl]oxy}-3-{2-[(2-methoxypyrimidin-4-yl)methoxy]phenyl}propanoate] | – | percentage fluorescence polarisation inhibition, Mcl-1 FP: 39.45% @ 10 uM |
| CCc1sc2ncnc(O[C@H](Cc3ccccc3OC)C(=O)O)c2c1-c1ccc(O)c(Cl)c1C (single isomer, unassigned) [Example 682] | 5.1e-07 | – |
| COc1ccccc1CC(Oc1ncnc2sc(-c3ccc(F)c(F)c3F)c(-c3ccc(OCCN4CCN(C)CC4)c(Cl)c3C)c12)C(=O)O [Example 537, (2R)-2-{[(5Sa)-5-{3-chloro-2-methyl-4-[2-(4-methylpiperazin-1-yl)ethoxy]phenyl}-6-(2,3,4-trifluorophenyl)thieno[2,3-d]pyrimidin-4-yl]oxy}-3-(2-methoxyphenyl)propanoic acid] | 4.3e-08 | – |
| COc1ccccc1CC(Oc1ncnc2sc(-c3ccc(C(=O)N(C)C)o3)c(-c3ccc(OCCN4CCN(C)CC4)c(Cl)c3C)c12)C(=O)O [Example 582, (2R)-2-[((5Sa)-5-{3-chloro-2-methyl-4-[2-(4-methylpiperazin-1-yl)ethoxy]phenyl}-6-[5-(dimethylcarbamoyl)furan-2-yl]thieno[2,3-d]pyrimidin-4-yl)oxy]-3-(2-methoxyphenyl)propanoic acid] | 8.4e-08 | – |
| Cc1c(-c2c(-c3ccco3)sc3ncnc(O[C@@H](C(=O)O)c4ccccc4)c23)ccc(OCCN2CCN(C)CC2)c1Cl [Example 339, (2R)-{[(5Ra)-5-{3-chloro-2-methyl-4-[2-(4-methylpiperazin-1-yl)ethoxy]phenyl}-6-(furan-2-yl)thieno[2,3-d]pyrimidin-4-yl]oxy}(phenyl)ethanoic acid] | – | percentage fluorescence polarisation inhibition (Mcl-1 FP), partial inhibitors: 18.85% @ 10 uM |
| CC(=O)c1sc2ncnc(OC(Cc3ccccc3)C(=O)O)c2c1-c1ccc(OCCN2CCN(C)CC2)c(Cl)c1C [Example 522, (2R)-2-[(6-acetyl-(5Sa)-5-{3-chloro-2-methyl-4-[2-(4-methylpiperazin-1-yl)ethoxy]phenyl}thieno[2,3-d]pyrimidin-4-yl)oxy]-3-phenylpropanoic acid] | 7.5e-08 | – |
| Cc1c(-c2c(-c3ccnn3C)sc3ncnc(OC(Cc4ccccc4)C(=O)O)c23)ccc(OCCN2CCN(C)CC2)c1Cl [Example 508, (2R)-2-{[(5Sa)-5-{3-chloro-2-methyl-4-[2-(4-methylpiperazin-1-yl)ethoxy]phenyl}-6-(1-methyl-1H-pyrazol-5-yl)thieno[2,3-d]pyrimidin-4-yl]oxy}-3-phenylpropanoic acid] | 3.7e-07 | – |
| CCc1sc2ncnc(OC(Cc3ccccc3)C(=O)O)c2c1-c1ccc(OCCOCCOC)c(Cl)c1C [Example 425, (2R)-2-[((5Sa)-5-{3-chloro-4-[2-(2-methoxyethoxy)ethoxy]-2-methylphenyl}-6-ethylthieno[2,3-d]pyrimidin-4-yl)oxy]-3-phenylpropanoic acid] | 9.6e-09 | – |
| CCCCn1nccc1COc1ccccc1CC(Oc1ncnc2sc(-c3ccc(F)o3)c(-c3ccc(OCCN4CCN(C)CC4)c(Cl)c3C)c12)C(=O)O [Example 188, (2R)-3-{2-[(1-butyl-1H-pyrazol-5-yl)methoxy]phenyl}-2-{[(5Sa)-5-{3-chloro-2-methyl-4-[2-(4-methylpiperazin-1-yl)ethoxy]phenyl}-6-(5-fluorofuran-2-yl)thieno[2,3-d]pyrimidin-4-yl]oxy}propanoic acid] | – | IC50 [1]: 6.4e-09 M |
| COc1ccccc1CC(Oc1ncnc2sc(-c3ccco3)c(-c3ccc(OCCN4CCN(CC(N)=O)CC4)c(Cl)c3C)c12)C(=O)O [Example 326, (2R)-2-{[(5Sa)-5-(4-{2-[4-(2-amino-2-oxoethyl)piperazin-1-yl]ethoxy}-3-chloro-2-methylphenyl)-6-(furan-2-yl)thieno[2,3-d]pyrimidin-4-yl]oxy}-3-(2-methoxyphenyl)propanoic acid] | – | IC50 [1]: 7.9e-09 M |
| COc1ccccc1C[C@@H](Oc1ncnc2sc(-c3ccco3)c(-c3ccc(OCCN4CCN(C)CC4)c(F)c3C)c12)C(=O)O (single isomer, unassigned) [Example 333] | – | IC50 [1]: 7.9e-07 M |
| COc1ccccc1CC(Oc1ncnc2sc(-c3cccnc3)c(-c3ccc(OCCN4CCN(C)CC4)c(Cl)c3C)c12)C(=O)O [Example 567, (2R)-2-{[(5Sa)-5-{3-chloro-2-methyl-4-[2-(4-methylpiperazin-1-yl)ethoxy]phenyl}-6-(pyridin-3-yl)thieno[2,3-d]pyrimidin-4-yl]oxy}-3-(2-methoxyphenyl)propanoic acid] | 2.1e-08 | – |
| CCc1c(-c2c(-c3ccco3)sc3ncnc(O[C@H](Cc4ccccc4OC)C(=O)O)c23)ccc(OCCN2CCN(C)CC2)c1Cl [Example 336, (2R)-2-{[(5Ra)-5-{3-chloro-2-ethyl-4-[2-(4-methylpiperazin-1-yl)ethoxy]phenyl}-6-(furan-2-yl)thieno[2,3-d]pyrimidin-4-yl]oxy}-3-(2-methoxyphenyl)propanoic acid] | – | percentage fluorescence polarisation inhibition (Mcl-1 FP), partial inhibitors: 43.2% @ 10 uM |
| Cc1c(-c2c(C#N)sc3ncnc(OC(Cc4ccccc4)C(=O)O)c23)ccc(OCCN2CCN(C)CC2)c1Cl [Example 521, (2R)-2-[((5Sa)-5-{3-chloro-2-methyl-4-[2-(4-methylpiperazin-1-yl)ethoxy]phenyl}-6-cyanothieno[2,3-d]pyrimidin-4-yl)oxy]-3-phenylpropanoic acid] | 2.4e-07 | – |
| CCc1sc2ncnc(OC(Cc3ccccc3)C(=O)O)c2c1-c1ccc(OCCO)c(Cl)c1C [Example 423, (2R)-2-({(5Sa)-5-[3-chloro-4-(2-hydroxyethoxy)-2-methylphenyl]-6-ethylthieno[2,3-d]pyrimidin-4-yl}oxy)-3-phenylpropanoic acid] | 5.3e-08 | – |
| CCc1sc2ncnc(OC(Cc3ccccc3)C(=O)O)c2c1-c1cc(Cl)c(O)cc1C [Example 438, (2R)-2-{[(5Sa)-5-(5-chloro-4-hydroxy-2-methylphenyl)-6-ethylthieno[2,3-d]pyrimidin-4-yl]oxy}-3-phenylpropanoic acid] | 8.5e-08 | – |
| COc1ccccc1C[C@@H](Oc1ncnc2sc(-c3ccc(F)cc3)c(-c3cc(F)c(OCCN4CCN(C)CC4)c(Cl)c3C)c12)C(=O)O (single isomer, unassigned) [Example 665] | 3.9e-06 | – |
| COc1ccccc1Cn1ccc(COc2ccccc2CC(Oc2ncnc3sc(-c4ccc(F)cc4)c(-c4ccc(OCCN5CCN(C)CC5)c(Cl)c4C)c23)C(=O)O)n1 [Example 740, (2R)-2-{[(5Sa)-5-{3-chloro-2-methyl-4-[2-(4-methylpiperazin-1-yl)ethoxy]phenyl}-6-(4-fluorophenyl)thieno[2,3-d]pyrimidin-4-yl]oxy}-3-(2-{[1-(2-methoxybenzyl)-1H-pyrazol-3-yl]methoxy}phenyl)propanoic acid] | 5.04e-09 | – |
